Assays:
DBH = test: in vivo DBH inhibition, heart dopamine level in spontaneously hypertensive rats; conditions: 50 mg/kg, IP, 6 hours post dose in SHR's; Control 0.015 ± .002; p < .001
Protocol: The compounds of this invention may also be tested for their in vivo DBH inhibiting property according to the procedure of Felice, Felice and Kessinger, J. Neurochem., 31, 1461-1465 (1978) wherein the effects on peripheral dopamine and norepinephrine levels are determined. In this test spontaneously hypertensive rats are dosed (i.p.) at 50 mg per kilogram of body weight and sacrificed six hours later. Average results, expressed in micrograms of dopamine (DA) per gram of heart tissue are determined with the difference between the control and the treated rats being the in vivo (DBH) inhibitory effect of the test compound.

[1] = tested on: spontaneously hypertensive rats (SHR's); test: in vivo antihypertensive effect, blood pressure in spontaneously hypertensive rats; conditions: 50 mg/kg, IP, Mean Difference ± Standard Deviation
Protocol: The ability of the compounds of this invention to lower blood pressure can be determined in vivo using spontaneously hypertensive rats (SHR's) according to standard and well known procedures. The test compound is administered intraperitoneally (ip) to rats and the blood pressure monitored continuously. Since DBH is a major enzyme in the synthetic pathway of the catecholamines, it would be expected that the presence of an inhibitor would act to decrease the amount of catecholamines produced, and thereby have an antihypertensive effect. The results of the testing for this antihypertensive effect are shown in Table I (MBP is mean blood pressure).

[2] = target: T1, dopamine beta-hydroxylase (DBH) (Bos taurus, UniProt P15101); test: in vitro inhibition of dopamine beta-hydroxylase (conversion of tyramine to octopamine, oxygen uptake by polarographic electrode); type: biochemical; conditions: pH 5, 20-40° C, preferably 37° C
T1 sequence (P15101 1-610): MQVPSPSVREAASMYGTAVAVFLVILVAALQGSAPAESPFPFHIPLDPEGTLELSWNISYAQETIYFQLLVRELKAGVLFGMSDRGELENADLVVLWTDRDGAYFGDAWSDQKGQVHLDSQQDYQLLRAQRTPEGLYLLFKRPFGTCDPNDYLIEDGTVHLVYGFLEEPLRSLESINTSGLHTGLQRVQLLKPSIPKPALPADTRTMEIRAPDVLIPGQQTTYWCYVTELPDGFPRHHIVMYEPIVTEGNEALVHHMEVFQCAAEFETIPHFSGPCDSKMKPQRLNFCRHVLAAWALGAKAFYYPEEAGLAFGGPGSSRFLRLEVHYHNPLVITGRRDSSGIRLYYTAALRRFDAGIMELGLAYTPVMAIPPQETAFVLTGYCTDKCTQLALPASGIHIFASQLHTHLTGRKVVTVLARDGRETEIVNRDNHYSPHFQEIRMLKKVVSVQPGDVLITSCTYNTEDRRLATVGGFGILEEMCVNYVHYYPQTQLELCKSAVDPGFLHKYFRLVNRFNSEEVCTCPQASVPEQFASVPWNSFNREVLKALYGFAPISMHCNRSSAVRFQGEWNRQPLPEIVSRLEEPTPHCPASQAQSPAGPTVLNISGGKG
Protocol: The DBH inhibitory compounds of this invention can readily be determined in vitro by standard and well known procedures for assaying conversion of tyramine to octopamine in the presence of dopamine beta-hydroxylase (DBH). Enzymatic oxygenation by DBH is determined in aqueous solution in the presence of molecular oxygen, an electron donor such as ascorbate, and the necessary cofactors for the enzyme at pH of 5 and a temperature of 20°-40° C., preferably 37° C. The test compound is added at the desired concentration, and the system is incubated. Activity is determined by measuring the oxygen uptake using a polarographic electrode and an oxygen monitor by the method of S. May, et al., J. Biol. Chem. 256, 2258 (1981). Inhibition is given in molar concentration of compound at which DBH activity was halved (IC50) when the test compounds were tested according to the above described procedure. The IC50 (expressed in micromolar units) data of some of the compounds of this invention are expressed in Table I.

IC50 [2] [nM] | Structure (SMILES) | Heart DA (dopamine per gram of heart tissue), treated (DBH) | Max Change MBP (mean blood pressure) [1] [mmHg]
120 | S=c1[nH]ccn1CCc1cccs1 [Compound 1, 1,3-Dihydro-1-[2-(2-thienyl)ethyl]-2H-imidazole-2-thione] | 0.038 ± .003 µg/g | -45 ± 17
1860 | Sc1nccn1CCCc1cccs1 [Compound 2, 1,3-Dihydro-1-[3-(2-thienyl)propyl]-2H-imidazole-2-thione] | – | –

Reference: patent US5057613A, “Novel thione dopamine beta hydroxylase inhibitors” (Merrell Dow Pharmaceuticals, priority 1987, dated 1991)
